Results as given in patent publication US20240269238A1, “Therapeutic Regimens and Methods for Reducing Body Weight in a Subject with Fatty Liver Disease using a GLP-1R and GCGR Agonist” (Spitfire Pharma LLC, priority 2022, published 2024).

Assays:
liver fat content = test: Phase 1 12-week NAFLD study (Example 1): liver fat content by MRI-PDFF; assay type: in vivo, human; settings: for absolute reduction in liver fat (MRI-PDFF): week 12, NAFLD; for relative reduction in liver fat (MRI-PDFF) / proportion of patients with at least 30% reduction in liver fat content / proportion of patients with at least 50% reduction in liver fat content / proportion of patients with normalization in liver fat content (equal or below 5%): week 12
Excerpt: Provided herein is disclosure of a Phase 1, multicenter, randomized, double-blind, placebo-controlled study to assess the effects of Pemvidutide (also termed herein as ALT-801), the safety of Pemvidutide and effects on hepatic fat fraction, anthropometric parameters, lipid metabolism, inflammatory markers and fibrosis markers in diabetic and non-diabetic (type 2 diabetes) overweight and obese (BMI 28.0 kg/m^2) subjects with NAFLD. This study was designed to assess changes in hepatic fat fraction by MRI-PDFF (magnetic resonance imaging-proton density fat fraction) in diabetic and non-diabetic overweight and obese subjects with NAFLD after 12 weeks of ALT-801 treatment. The trial was conducted without adjunctive diet and exercise interventions. The study assessed changes in body weight, lipid metabolism, metabolic markers, and inflammatory markers and safety and tolerability of ALT-801 after 12 weeks of treatment. Subjects were stratified for the presence or absence of diabetes at baseline. Fibroscan and cT1 assessments evaluated changes in liver inflammatory and fibrotic activity at the end of 12 weeks of treatment.
Overweight and obese volunteers with BMI ≥28 kg/m^2 were studied because this is the typical population of individuals with NAFLD, and these subjects are able to better tolerate the predicted Pharmacodynamics (PD) effect of weight loss and could even benefit from treatment. A hepatic fat fraction of 10% has been typical for the evaluation of hepatic fat fraction in subjects with NAFLD. In other words, individuals with a liver fat fraction of 10% or greater are typically diagnosed with NAFLD. Diabetic subjects that require insulin, sulfonylureas or DDP-4 inhibitors for control of diabetes were excluded in this study. Exclusions were instituted that might otherwise affect an accurate assessment of the effects of ALT-801 on safety or PD. The BMI upper limit is set to 45 kg/m^2 as subjects over this BMI are no likely to fit into the MRI scanner.
The study, described in this example, was carried out in 94 subjects overweight and obese (body mass index [BMI] ≥28.0 kg/m^2) Type 2 diabetic and non-diabetic subjects with nonalcoholic fatty liver disease (NAFLD) over about 4.5 months, including up to a 35-day screening period, and 85-day treatment period and a 25-day follow-up period, with treatment with ALT-801 (a composition comprising SEQ ID NO.: 1, “study medication”) or placebo administered by subcutaneous (SC) injection once weekly for up to twelve (12) doses.
The safety objective of this study was to assess the safety and tolerability of ALT-801 in 18-65 years old subjects with NAFLD (NAFLD without significant fibrosis, defined as FibroScan® controlled attenuation parameter (CAP) ≥280 dB/m and liver stiffness measurement (LSM)<10 kPa (i.e., indicating the absence of significant fibrosis), magnetic resonance imaging derived proton density fat fraction (MRI-PDFF) ≥10%), hemoglobin Alc (HbAlc) of less than 9.5%, and alanine aminotransferase (ALT) or aspartate aminotransferase (AST) values of ≤[…]. The pharmacodynamic (PD) objectives of this study were to evaluate the effects of ALT-801 on hepatic fat fraction, anthropometric parameters, lipid metabolism, metabolic markers, inflammatory markers, fibrosis markers, and lipotoxicity markers. The pharmacokinetic (PK) objectives of this study were to evaluate the effects of ALT-801 and metformin exposure (drug interactions) on the subjects (e.g., ALT-801 and metformin concentrations in blood over time).
After providing informed consent, subjects underwent a screening period of up to 35 days. Subjects were instructed on how to maintain their normal diets, alcohol consumption and physical activities and not to start any new diets, supplements, or exercise programs at any time while participating in the study. […]

[1] = Phase 1b 24-week NAFLD study (Example 3): body weight loss; assay type: in vivo, human; settings: for weight loss: Week 24
Excerpt: Provided herein is disclosure of a 12-week extension study of the study provided in Example 1, providing a 24-week a Phase 1b, randomized, double-blind, placebo-controlled study to assess the effects of pemvidutide (also termed herein as ALT-801), the safety of pemvidutide and effects on weight loss, hepatic fat fraction, anthropometric parameters, lipid metabolism, as well as inflammatory, fibrosis and other markers in diabetic and non-diabetic (type 2 diabetes) overweight and obese (BMI≥28.0 kg/m^2) subjects with NAFLD (defined as liver fat content (LFC) by MRI-PDFF ≥10%; absence of significant fibrosis, defined as FibroScan® LSM ≤10 kPa), alanine aminotransferase (ALT) and aspartate aminotransferase (AST) laboratory values of ≤75 IU/L and HbA1c <9.5. Men and women aged 18-65 years were studied. Diabetic subjects were defined as those that have undergone stable dose (≥3 months) metformin or SLGT-2 therapy and no use of insulin, sulfonylureas, DPP-4, GLP-1 treatment; Ninety-four (94) subjects were enrolled in the initial 12-week Phase 1b NAFLD trial and 83 subjects who completed were invited to receive a total of 12 additional weeks of blinded treatment. Of those subjects, 66 consented to rollover, of which 64 were eligible to participate.
The primary endpoint of this study was a reduction in liver fat content (LFC) by MRI-PDFF at Week 24 compared to Week 0 (zero). Key secondary endpoints include percent (%) weight loss at Week 24 compared to Week 0 (zero), and liver inflammation by alanine aminotransferase (ALT) levels and corrected T1 (cT1) imaging at Week 24 as compared to Week 0 (zero). Adverse events (AEs), including serious and severe AEs, AEs leading to discontinuation, GI tolerability, vital signs, and glycemic control including fasting glucose and HbA1c levels were also measured.

Q: What does the source list for `CC[C@H](C)[C@H](NC(=O)[C@H](Cc1ccccc1)NC(=O)[C@H](CCC(=O)O)NC(=O)[C@@H]1CCCCNC(=O)CC[C@H](NC(=O)[C@H](CC(=O)O)NC(=O)[C@H](CC(C)C)NC(=O)[C@H](Cc2ccc(O)cc2)NC(=O)[C@H](CCCCN)NC(=O)[C@H](CO)NC(=O)[C@H](Cc2ccc(O)cc2)NC(=O)[C@H](CC(=O)O)NC(=O)[C@H](CO)NC(=O)[C@@H](NC(=O)[C@H](Cc2ccccc2)NC(=O)[C@@H](NC(=O)CNC(=O)[C@H](CCC(N)=O)NC(=O)C(C)(C)NC(=O)[C@@H](N)Cc2c[nH]cn2)[C@@H](C)O)[C@H](C)O)C(=O)N[C@@H](CCCCNC(=O)C2O[C@@H](OCCCCCCCCCCCCCCCCCC(=O)O)C(O)C(O)[C@@H]2O)C(=O)N[C@@H](C)C(=O)N[C@@H](C)C(=O)N1)C(=O)N[C@@H](CCC(N)=O)C(=O)N[C@@H](Cc1c[nH]c2ccccc12)C(=O)N[C@@H](CC(C)C)C(=O)N[C@@H](CC(C)C)C(=O)N[C@@H](CCC(N)=O)C(=O)N[C@H](C(N)=O)[C@@H](C)O` (stereo partly shown) [ALT-801, Pemvidutide]?
A: absolute reduction in liver fat (MRI-PDFF) (liver fat content; 1.2 mg SC once weekly): 8.9%; relative reduction in liver fat (MRI-PDFF) (liver fat content; 1.2 mg once weekly): 46.6%; proportion of patients with at least 30% reduction in liver fat content (liver fat content; 1.2 mg): 65 % of patients; proportion of patients with at least 50% reduction in liver fat content (liver fat content; 1.2 mg): about 40 % of patients; proportion of patients with normalization in liver fat content (equal or below 5%) (liver fat content; 1.2 mg): 20 % of patients; absolute reduction in liver fat (MRI-PDFF) (liver fat content; 1.8 mg SC once weekly): 14.7%; relative reduction in liver fat (MRI-PDFF) (liver fat content; 1.8 mg once weekly): 68.5%; proportion of patients with at least 30% reduction in liver fat content (liver fat content; 1.8 mg): 94.4 % of patients; proportion of patients with at least 50% reduction in liver fat content (liver fat content; 1.8 mg): 72.2 % of patients; proportion of patients with normalization in liver fat content (equal or below 5%) (liver fat content; 1.8 mg): 55.6 % patients; absolute reduction in liver fat (MRI-PDFF) (liver fat content; 2.4 mg SC once weekly (4-week titration)): 11.3%; relative reduction in liver fat (MRI-PDFF) (liver fat content; 2.4 mg once weekly): 57.1%; proportion of patients with at least 30% reduction in liver fat content (liver fat content; 2.4 mg): 85 % of patients; proportion of patients with at least 50% reduction in liver fat content (liver fat content; 2.4 mg): 70%; proportion of patients with normalization in liver fat content (equal or below 5%) (liver fat content; 2.4 mg): 50.0%; relative reductions in liver fat (study conclusion) (liver fat content; 12 weeks): > 60%; weight loss (in words) ([1]; Week 24 compared to Week 12): continued weight loss; weight loss ([1]; diabetic subjects): 5.3%; weight loss ([1]; non-diabetic subjects): 7.2%
